The first series can be described thus: log P determination by HPLC on reversed-phase column (C 18), EEC Directive 79/831 Annex V.A8. The class given is physicochemical. The conditions noted are these: HPLC on reversed-phase column (C 18). As to the method: Temperature: 40° C.; Mobile phases: 0.1% aqueous formic acid and acetonitrile; linear gradient from 10% acetonitrile to 90% acetonitrile.
Calibration was carried out using unbranched alkan-2-ones (comprising 3 to 16 carbon atoms) with known log P values (determination of the log P values by the retention times using linear interpolation between two successive alkanones).
Turning to `Cc1nn(C)c(F)c1C(=O)N(Cc1ccc(Cl)cc1Cl)C1CC1` [Compound 236], the log partition coefficient (LogP) (commonly a log measure of how a compound divides between an organic and an aqueous phase) is 3.04.

As for `CC(c1ccc(Cl)cc1Cl)N(C(=O)c1cn(C)nc1I)C1CC1` (stereo not drawn) [Compound 266], the log partition coefficient (LogP) came to 3.22.

With `Cc1nc(C(F)F)c(C(=O)N(C2CC2)C(C#N)c2c(Cl)cccc2Cl)s1` (stereo not drawn) [Compound 213], the LogP stood at 3.14.

Consider `Cc1nc(C(F)F)c(C(=O)N(C2CC2)C(C)c2ccc(Cl)cc2Cl)s1` (stereo not drawn) [Compound 173], for which the LogP came to 3.9.

`CCOc1nn(C)cc1C(=O)N(Cc1c(Cl)cc(Cl)cc1Cl)C1CC1` [Compound 257] returned a LogP of 3.35.

Consider `COc1nn(C)cc1C(=O)N(Cc1ccc(C(F)(F)F)cc1)C1CC1` [Compound 259], for which the LogP is recorded as 2.61.

With `Cn1cnc(C(=O)N(Cc2c(Cl)cc(Cl)cc2Cl)C2CC2)c1` [Compound 503], the lipophilicity (LogP) is recorded as 2.40.

In turn, `COc1nn(C)cc1C(=O)N(Cc1ccc(Cl)cc1Cl)C1CC1` [Compound 251] came in with a LogP of 2.81.

`Cn1cc(C(=O)N(Cc2c(Cl)cc(Cl)cc2Cl)C2CC2)c(C(F)(F)F)n1` [Compound 256] came in with a LogP of 3.78.

`Cc1nc(C(F)F)c(C(=O)N(C2CC2)C(C#N)c2ccc(Cl)cc2Cl)s1` (stereo not drawn) [Compound 209] had a lipophilicity (LogP) of 3.61. The LogP values of the last two compounds are within 0.2 log units of each other.

Turning to `Cc1nc(C(F)F)c(C(=O)N(Cc2ccc(C(F)(F)F)cc2)C2CC2)s1` [Compound 172], the log partition coefficient (LogP) is listed as 3.37.

`CCC(c1ccc(Cl)cc1Cl)N(C(=O)c1c(C)nn(C)c1F)C1CC1` (stereo not drawn) [Compound 386] showed a LogP of 3.53.

In turn, `Cc1nc(C(F)(F)F)c(C(=O)N(Cc2ccc(Cl)cc2Cl)C2CC2)s1` [Compound 168] registered a lipophilicity (LogP) of 4.19.

Turning to `CCOc1nn(C)cc1C(=O)N(Cc1ccc(C(F)(F)F)cc1)C1CC1` [Compound 261], the lipophilicity (LogP) is on record as 2.92.

In turn, `Cn1cc(C(=O)N(Cc2ccc(C(F)(F)F)cc2)C2CC2)c(I)n1` [Compound 262] yielded a LogP of 2.92.

Compound `COc1nn(C)cc1C(=O)N(Cc1c(Cl)cc(Cl)cc1Cl)C1CC1` [Compound 255] showed a LogP of 2.97.

The compound `Cn1cc(C(=O)N(Cc2ccc(Cl)cc2Cl)C2CC2)c(C(F)(F)F)n1` [Compound 252] showed a LogP of 3.58.

Compound `Cc1nn(C)c(F)c1C(=O)N(Cc1ccc(C(F)(F)F)cc1)C1CC1` [Compound 237, N-(4-trifluoromethyl-benzyl)-N-cyclopropyl-5-fluoro-1,3-dimethyl-1H-pyrazole-4-carboxamide] returned a LogP of 2.8.

`COC(c1ccc(Cl)cc1Cl)N(C(=O)c1c(C)nn(C)c1F)C1CC1` (stereo not drawn) [Compound 500] displayed a LogP of 2.96.

Compound `Cc1nc(C(F)F)c(C(=O)N(Cc2ccc(Cl)cc2Cl)C2CC2)s1` [Compound 169] registered a LogP of 3.74.

Consider `Cn1cc(C(=O)N(Cc2ccc(C(F)(F)F)cc2)C2CC2)c(C(F)(F)F)n1` [Compound 260], for which the log partition coefficient (LogP) stood at 3.29.

In the case of `COc1nn(C)cc1C(=O)N(C1CC1)C(C)c1ccc(Cl)cc1Cl` (stereo not drawn) [Compound 264], the lipophilicity (LogP) amounted to 2.83.

For the compound `Cc1nc(C(F)(F)F)c(C(=O)N(Cc2c(Cl)cc(Cl)cc2Cl)C2CC2)s1` [Compound 170], the LogP is 4.52.

As to `Cc1nc(C(F)F)c(C(=O)N(Cc2c(Cl)cc(Cl)cc2Cl)C2CC2)s1` [Compound 171], the LogP came to 4.1.

As to `CCOc1nn(C)cc1C(=O)N(C1CC1)C(C)c1ccc(Cl)cc1Cl` (stereo not drawn) [Compound 265], the LogP came out at 3.19.

Regarding `Cn1cc(C(=O)N(Cc2c(Cl)cc(Cl)cc2Cl)C2CC2)c(C(F)F)n1` [Compound 243], the lipophilicity (LogP) is recorded as 3.46.

As for `CC(c1ccc(C(F)(F)F)cc1)N(C(=O)c1cn(C)nc1C(F)F)C1CC1` (stereo not drawn) [Compound 246], the LogP came to 3.27.

`Cn1cc(C(=O)N(Cc2ccc(C(F)(F)F)cc2)C2CC2)c(C(F)F)n1` [Compound 242] registered a LogP of 2.98.

Consider `COC(=O)C(c1ccccc1Cl)N(C(=O)c1c(C)nn(C)c1F)C1CC1` (stereo not drawn) [Compound 383], for which the log partition coefficient (LogP) was 2.57.

Turning to `Cn1cc(C(=O)N(Cc2c(Cl)cc(Cl)cc2Cl)C2CC2)c(I)n1` [Compound 258], the lipophilicity (LogP) is listed as 3.34.

Consider `Cc1nn(C)c(F)c1C(=O)N(C1CC1)C(C#N)c1ccc(Cl)cc1Cl` (stereo not drawn) [Compound 385], for which the LogP was determined as 3.15.

With `Cc1nn(C)c(F)c1C(=O)N(Cc1cccc(Br)c1)C1CC1` [Compound 412], the LogP came out at 2.66.

Compound `Cc1nn(C)c(F)c1C(=O)N(Cc1ccc(Br)cc1)C1CC1` [Compound 422] came in with a lipophilicity (LogP) of 2.67.

For the compound `Cn1cc(C(=O)N(Cc2ccc(Cl)cc2Cl)C2CC2)c(I)n1` [Compound 254], the LogP was 3.15.

Regarding `Cn1cc(C(=O)N(Cc2ccc(Oc3ccccc3)cc2)C2CC2)c(C(F)F)n1` [Compound 244], the log partition coefficient (LogP) came to 3.37.

Take `Cn1cc(C(=O)N(Cc2ccc(Cl)cc2Cl)C2CC2)c(C(F)F)n1` [Compound 241]: the LogP amounted to 3.27. The LogP values of the last two compounds are within 0.2 log units of each other.

In turn, `Cc1nn(C)c(F)c1C(=O)N(Cc1c(Cl)cc(Cl)cc1Cl)C1CC1` [Compound 238] showed a LogP of 3.32.

The compound `CCn1nc(C)c(Br)c1C(=O)N(Cc1c(Cl)cc(Cl)cc1Cl)C1CC1` [Compound 541] returned a LogP of 2.4.

Compound `Cc1nn(C)c(F)c1C(=O)N(C1CC1)C(C)c1ccc(Cl)cc1Cl` (stereo not drawn) [Compound 263] showed a LogP of 3.19.

In the case of `CC(c1ccc(Cl)cc1Cl)N(C(=O)c1cn(C)nc1C(F)F)C1CC1` (stereo not drawn) [Compound 245], the LogP came to 3.31.

With `CCOc1nn(C)cc1C(=O)N(Cc1ccc(Cl)cc1Cl)C1CC1` [Compound 253], the LogP was 3.22.

Still in this series, the particulars now being: HPLC, C 18, 40° C., 0.1% aqueous formic acid and acetonitrile gradient.
In the case of `Cc1occc1C(=O)N(Cc1ccc(C(F)(F)F)cc1)C1CC1` [Compound 15], the LogP turned out to be 3.43.

Compound `Cc1occc1C(=O)N(Cc1ccc(Cl)cc1Cl)C1CC1` [Compound 11] showed a lipophilicity (LogP) of 3.77.

Turning to `O=C(c1sccc1I)N(Cc1ccc(C(F)(F)F)cc1)C1CC1` [Compound 60], the log partition coefficient (LogP) was 4.04.

In turn, `Cc1cc(C(=O)N(Cc2ccc(Cl)cc2Cl)C2CC2)c(C(F)(F)F)o1` [Compound 12] displayed a log partition coefficient (LogP) of 4.6.

`Cn1cc(C(=O)N(Cc2c(Cl)cc(Cl)cc2Cl)C2CC2)c(C(F)(F)F)c1` [Compound 99] returned a LogP of 4.08.

As to `O=C(c1sccc1I)N(Cc1c(Cl)cc(Cl)cc1Cl)C1CC1` [Compound 59], the LogP is 4.86.

For the compound `Cn1cc(C(=O)N(Cc2ccc(C(F)(F)F)cc2)C2CC2)c(C(F)(F)F)c1` [Compound 100], the lipophilicity (LogP) came to 3.55.

As for `Cc1cc(C(=O)N(Cc2ccc(C(F)(F)F)cc2)C2CC2)c(C(F)(F)F)o1` [Compound 16], the log partition coefficient (LogP) is recorded as 4.18.

Regarding `Cc1cc(C(=O)N(Cc2c(Cl)cc(Cl)cc2Cl)C2CC2)c(C(F)(F)F)o1` [Compound 14], the LogP is recorded as 4.91.

`Cn1cc(C(=O)N(Cc2ccc(Cl)cc2Cl)C2CC2)c(C(F)(F)F)c1` [Compound 98] showed a lipophilicity (LogP) of 3.88.

Regarding `O=C(c1sccc1I)N(Cc1ccc(Cl)cc1Cl)C1CC1` [Compound 58], the LogP turned out to be 4.48.

`Cc1occc1C(=O)N(Cc1c(Cl)cc(Cl)cc1Cl)C1CC1` [Compound 13] yielded a log partition coefficient (LogP) of 4.09.

The same series, now with this note: reversed-phase HPLC column (C 18); HPLC, C 18, 40° C., 0.1% aqueous formic acid and acetonitrile gradient.
Consider `Cc1nn(C)c(F)c1C(=O)N(Cc1ccc(C(F)(F)F)cc1)C1CC1` [Compound 237, N-(4-trifluoromethyl-benzyl)-N-cyclopropyl-5-fluoro-1,3-dimethyl-1H-pyrazole-4-carboxamide], for which the chromatographic logP – broadly, a lipophilicity value derived from retention on a column – is 2.8.

(Values after patent publication US8088927B2, “Fungicide N-cycloalkyl-benzyl-amide derivatives” (Bayer Cropscience AG, priority 2006, dated 2012).)
